Experimental data published in patent US20220047569A1, “METHOD AND COMPOUND FOR USE, IN TREATING AND/OR PREVENTING NETOSIS” (Jubilant EpiPad LLC, priority 2020, published 2022).
Where a name gives a salt, the structure may show the parent alone.

What follows are compounds tested on Histone H3 Citrullination in Neutrophils (assay: Citrullination ELISA (Citrullinated Histone H3) in calcium ionophore stimulated neutrophils). Details: Neutrophil; human neutrophils, 25 μM calcium ionophore, CitH3 ELISA.
Type: cell-based
Protocol: Neutrophils were isolated according to the EasySep Direct Human Neutrophil Isolation Kit. In short, 50 mL of blood sample was drawn in a vacutainer containing K2EDTA from a healthy donor. To the whole blood, the isolation cocktail of 50 μL/mL was added. Then, in the next step 50 μL/mL of RapidSpheres™ was added to the sample. The sample was mixed evenly with the pipette and incubated for 10 minutes at room temperature. After incubation, PBS containing 1 mM EDTA was added at the ratio of 1:1 to the blood. Then the sample tube was incubated for 10 minutes. The enriched cell suspension was transferred into a new tube and RapidSpheres™ were added at 50 μL/mL to this suspension, mixed and incubated for 10 minutes at room temperature. At this step, the enriched cell suspension was carefully collected as a clear fraction into a fresh tube. Then, previous tube was replaced with the fresh tube containing enriched cell suspension. After the final separation, the clear solution of enriched cell suspension was carefully transferred to fresh tube which was ready to use for the experiment. These cells were then subjected to wash twice with plain RPMI 1640 media without Fetal Bovine Serum (FBS) and centrifuged at 1500 rpm for 5 minutes at room temperature. Cell counts were performed on each sample by Invitrogen cell counter. After the cell count, cell density was adjusted according to the experiment and re-suspended in complete RPMI media containing RPMI1640, 2% BSA and 1 mM CaCl2.
Freshly isolated neutrophils from human donor were seeded at a density of 0.5×10^6 cells in 400 μL cell suspension/well in a 24-well plate and cells were pre-incubated with the compound for 30 minutes by adding 50 μL of the 10× concentration to achieve the final 1× concentration of compound (10 μM, 1 μM and 0.1 μM). 1% DMSO was added in control wells. Then, the cells were stimulated in the presence and absence of calcium ionophore by adding 50 μL/well to achieve the final concentration of 25 μM. Upon incubation for 30 minutes with calcium ionophore, S7 nuclease was added to the wells and incubated for 10 minutes to disrupt NET DNA. Following incubation, 10 μL of 1 mM EDTA was added to inactivate nuclease. Cells were scrapped gently and transferred to the tubes, followed by centrifugation at 1500 rpm for 5 minutes. After centrifugation, supernatant was discarded, and 200 μL of lysis buffer containing PBS and 1× Protease inhibitor was added to the tubes. The obtained lysis was then subjected to mechanical shearing using Geno grinder by spin the plate at 2500 rpm for 10 minutes, followed by collection of supernatant and stored at −20° C. or immediately used for ELISA.
ELISA was performed as per Citrullinated Histone H3 ELISA Kit. All the buffer components from the kit were dissolved according to the manufactures protocol. ELISA Buffer Concentrate (10×) (Item No. 400060) and Wash Buffer Concentrate (400×) (Item No. 400060) along with polysorbate 20 (2000×) (Item No. 400035) was diluted to 1× with milliQ water. The standard for use in the ELISA was prepared as follows: • Obtain eight clean test tubes and label them, #1 through #8. Aliquot 4.9 mL of ELISA Buffer into tube #1. • Aliquot 500 μL of ELISA Buffer into the tubes #2-8. […] This tube is considered as blank, the lowest point on the standard curve.
100 μL of standards or diluted sample was added to the appropriate wells on the 96-well plate. Plates were covered with 96-well cover sheet and incubated for two hours at room temperature on an orbital shaker. The samples and standard were removed from the wells and washed four times with Wash Buffer. After the last wash, Anti-Histone H3 HRP Conjugate (Item No. 501441) (10×) stock solution was diluted in 1×ELISA buffer and 100 μL of the HRP Conjugate working solution was added to each well of the plate and incubated for one hour at room temperature on an orbital shaker. […]

| Compound | IC50 [µM] |
| --- | --- |
| CCn1c(-c2nc3cc(C(=O)N4CCC[C@@H](N)C4)ccn3c2C)cc2ccccc21 [Compound 4, (R)-(3-aminopiperidin-1-yl)(2-(1-ethyl-1H-indol-2-yl)-3-methylimidazo[1,2-a]pyridin-7-yl)methanone] | < 0.1 |
| Cc1c(-c2cc3ccccc3n2Cc2ccncc2)nc2cc(C(=O)N3CCC[C@@H](N)C3)ccn12 [Compound 10, (R)-(3-aminopiperidin-1-yl)(3-methyl-2-(1-(pyridin-4-ylmethyl)-1H-indol-2-yl)imidazo[1,2-a]pyridin-7-yl)methanone] | < 0.1 |
| Cc1c(-c2cc3ccccc3n2CC2CCOCC2)nc2cc(C(=O)N3CCC[C@@H](N)C3)ccn12 [Compound 11, (R)-(3-aminopiperidin-1-yl)(3-methyl-2-(1-((tetrahydro-2H-pyran-4-yl)methyl)-1H-indol-2-yl)imidazo[1,2-a]pyridin-7-yl)methanone] | 0.1 to 1 |
| COc1ccc(Cn2c(-c3nc4cc(C(=O)N5CCC[C@@H](N)C5)ccn4c3C)cc3ccccc32)cc1 [Compound 12, (R)-(3-aminopiperidin-1-yl)(2-(1-(4-methoxybenzyl)-1H-indol-2-yl)-3-methylimidazo[1,2-a]pyridin-7-yl)methanone] | < 0.1 |
| Cc1cc(C(=O)N2CCC[C@@H](N)C2)cc2nc(-c3cc4ccccc4n3CC3CC3)c(C)n12 [Compound 25, (R)-(3-aminopiperidin-1-yl)(2-(1-(cyclopropylmethyl)-1H-indol-2-yl)-3,5-dimethylimidazo[1,2-a]pyridin-7-yl)methanone] | 0.1 to 1 |
| CCn1c(-c2nc3cc(C(=O)N4CCC[C@@H](N)C4)ccn3c2C)cc2cc(F)ccc21 [Compound 39, (R)-(3-aminopiperidin-1-yl)(2-(1-ethyl-5-fluoro-1H-indol-2-yl)-3-methylimidazo[1,2-a]pyridin-7-yl)methanone] | < 0.1 |
| COc1cccc(Cn2c(-c3nc4cc(C(=O)N5CCC[C@@H](N)C5)ccn4c3C)cc3ccccc32)c1 [Compound 42, (R)-(3-aminopiperidin-1-yl)(2-(1-(3-methoxybenzyl)-1H-indol-2-yl)-3-methylimidazo[1,2-a]pyridin-7-yl)methanone] | < 0.1 |
| Cc1c(-c2cc3cccc(Cl)c3n2CC2CC2)nc2cc(C(=O)N3CCC[C@@H](N)C3)ccn12 [Compound 44, (R)-(3-aminopiperidin-1-yl)(2-(7-chloro-1-(cyclopropylmethyl)-1H-indol-2-yl)-3-methylimidazo[1,2-a]pyridin-7-yl)methanone] | < 0.1 |
| Cc1c(-c2cc3ccccc3n2Cc2ccc(F)cc2)nc2cc(C(=S)N3CCC[C@@H](N)C3)ccn12 [Compound 45, (R)-(3-aminopiperidin-1-yl)(2-(1-(4-fluorobenzyl)-1H-indol-2-yl)-3-methylimidazo[1,2-a]pyridin-7-yl)methanethione] | < 0.1 |
| Cc1ncc(Cn2c(-c3nc4cc(C(=O)N5CCC[C@@H](N)C5)ccn4c3C)cc3ccccc32)s1 [Compound 49, (R)-(3-aminopiperidin-1-yl)(3-methyl-2-(1-((2-methylthiazol-5-yl)methyl)-1H-indol-2-yl)imidazo[1,2-a]pyridin-7-yl)methanone] | < 0.1 |
| COc1ccc2cc(-c3nc4cc(C(=O)N5CCC[C@@H](N)C5)ccn4c3C)n(Cc3cccnc3)c2c1 [Compound 51, (R)-(3-aminopiperidin-1-yl)(2-(6-methoxy-1-(pyridin-3-ylmethyl)-1H-indol-2-yl)-3-methylimidazo[1,2-a]pyridin-7-yl)methanone] | > 1 |
| Cc1c(-c2cc3ccc(F)cc3n2CC2CC2)nc2cc(C(=O)N3CCC[C@@H](N)C3)ccn12 [Compound 52, (R)-(3-aminopiperidin-1-yl)(2-(1-(cyclopropylmethyl)-6-fluoro-1H-indol-2-yl)-3-methylimidazo[1,2-a]pyridin-7-yl)methanone trifluoroacetic acid salt] | 0.1 to 1 |
| COc1cccc(Cn2c(-c3nc4cc(C(=O)N5CCC[C@@H](N)C5)ccn4c3C)cc3cc(F)ccc32)c1 [Compound 53, (R)-(3-aminopiperidin-1-yl)(2-(5-fluoro-1-(3-methoxybenzyl)-1H-indol-2-yl)-3-methylimidazo[1,2-a]pyridin-7-yl)methanone] | 0.1 to 1 |
| Cc1c(-c2cc3ccccc3n2Cc2cncnc2)nc2cc(C(=O)N3CCC[C@@H](N)C3)ccn12 [Compound 58, (R)-(3-aminopiperidin-1-yl)(3-methyl-2-(1-(pyrimidin-5-ylmethyl)-1H-indol-2-yl)imidazo[1,2-a]pyridin-7-yl)methanone trifluoroacetic acid salt] | > 1 |
| Cc1c(-c2cc3ccccc3n2CC(C)C)nc2cc(C(=O)N3CCC[C@@H](N)C3)ccn12 [Compound 60, (R)-(3-aminopiperidin-1-yl)(2-(1-isobutyl-1H-indol-2-yl)-3-methylimidazo[1,2-a]pyridin-7-yl)methanone] | > 1 |

Second part, the compound after the results:

| IC50 [µM] | Compound |
| --- | --- |
| 0.1 to 1 | Cc1c(-c2cc3ccccc3n2Cc2ccc(F)cc2)nc2cc(C(=O)N3CCC[C@@H](N)C3)ccn12 [Compound 13, (R)-(3-aminopiperidin-1-yl)(2-(1-(4-fluorobenzyl)-1H-indol-2-yl)-3-methylimidazo[1,2-a]pyridin-7-yl)methanone] |
| < 0.1 | Cc1c(-c2cc3ccccc3n2Cc2cccnc2)nc2cc(C(=O)N3CCC[C@@H](N)C3)ccn12 [Compound 15, (R)-(3-aminopiperidin-1-yl)(3-methyl-2-(1-(pyridin-3-ylmethyl)-1H-indol-2-yl)imidazo[1,2-a]pyridin-7-yl)methanone] |
| < 0.1 | Cc1cc(C(=O)N2CCC[C@@H](N)C2)cc2nc(-c3cc4ccccc4n3Cc3ccccc3)c(C)n12 [Compound 26, (R)-(3-aminopiperidin-1-yl)(2-(1-benzyl-1H-indol-2-yl)-3,5-dimethylimidazo[1,2-a]pyridin-7-yl)methanone] |
| 0.1 to 1 | Cc1cccc2cc(-c3nc4cc(C(=O)N5CCC[C@@H](N)C5)ccn4c3C)n(CC3CC3)c12 [Compound 30, (R)-(3-aminopiperidin-1-yl)(2-(1-(cyclopropylmethyl)-7-methyl-1H-indol-2-yl)-3-methylimidazo[1,2-a]pyridin-7-yl)methanone] |
| < 0.1 | Cc1c(-c2cc3ccccc3n2Cc2ccoc2)nc2cc(C(=O)N3CCC[C@@H](N)C3)ccn12 [Compound 37, (R)-(3-aminopiperidin-1-yl)(2-(1-(furan-3-ylmethyl)-1H-indol-2-yl)-3-methylimidazo[1,2-a]pyridin-7-yl)methanone] |
| 0.1 to 1 | Cc1csc(Cn2c(-c3nc4cc(C(=O)N5CCC[C@@H](N)C5)ccn4c3C)cc3ccccc32)n1 [Compound 41, (R)-(3-aminopiperidin-1-yl)(3-methyl-2-(1-((4-methylthiazol-2-yl)methyl)-1H-indol-2-yl)imidazo[1,2-a]pyridin-7-yl)methanone] |
| < 0.1 | Cc1c(-c2cc3ccc(F)cc3n2Cc2ccc(F)cc2)nc2cc(C(=O)N3CCC[C@@H](N)C3)ccn12 [Compound 54, (R)-(3-aminopiperidin-1-yl)(2-(6-fluoro-1-(4-fluorobenzyl)-1H-indol-2-yl)-3-methylimidazo[1,2-a]pyridin-7-yl)methanone] |
| > 1 | Cc1c(-c2cc3ccccc3n2Cc2ccc(F)cc2)nc2cc(C(=O)N3CCC[C@@H](NC(=O)/C=C/CN(C)C)C3)ccn12 [Compound 56, (R,E)-4-(dimethylamino)-N-(1-(2-(1-(4-fluorobenzyl)-1H-indol-2-yl)-3-methylimidazo[1,2-a]pyridine-7-carbonyl)piperidin-3-yl)but-2-enamide] |
